Tests used:
mFPR3 = target: T1, mFPR3 (Mus musculus, UniProt O08790); assay: cAMP assay in CHO-A12 cell line over-expressing mouse mFPR3; format: cell-based; settings: CHO-A12 cells over-expressing mFPR3; read-out: activity against mFPR3
T1 construct: expressed in transfected cells; host or cells: CHO-A12
T1 sequence (O08790 1-351): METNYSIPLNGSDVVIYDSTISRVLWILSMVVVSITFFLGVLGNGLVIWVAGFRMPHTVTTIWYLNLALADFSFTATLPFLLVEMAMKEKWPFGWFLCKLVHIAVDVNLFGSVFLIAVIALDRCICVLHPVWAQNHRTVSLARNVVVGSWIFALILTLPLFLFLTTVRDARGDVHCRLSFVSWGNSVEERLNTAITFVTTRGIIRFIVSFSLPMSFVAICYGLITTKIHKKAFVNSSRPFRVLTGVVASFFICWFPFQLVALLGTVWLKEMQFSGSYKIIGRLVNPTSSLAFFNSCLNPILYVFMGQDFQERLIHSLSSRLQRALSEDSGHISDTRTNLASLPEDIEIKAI

mice [1] = assay: Angiotensin II challenge myocardial fibrosis model; format: in vivo, mouse; settings: for decrease of left ventricular hydroxyproline content vs vehicle: p<0.05
Description: To assess myocardial fibrosis, mice were challenged with angiotensin II to stimulate cardiac hypertrophy and left ventricular collagen deposition. Mice were administered angiotensin II using subcutaneously implanted osmotic mini-pumps (˜2 mg/kg/day) A separate group of mice were implanted with subcutaneous pumps containing saline (surgical “sham” group); these mice served as control for pump implantation surgery. […] Treatments lasted for 2-3 weeks, depending on the exact study design. At the end of treatment phase, hearts were removed from animals and evaluated for collagen levels/fibrosis using a standard colorimetric assay for myocardial hydroxyproline or by cross-sectional histology of the hearts.
Myocardial fibrosis was evaluated in the mouse with continuous angiotensin II challenge administered by subcutaneous osmotic mini-pump.

mFPR2/ALX = target: T2, mFPR2/ALX (Mus musculus, UniProt O88536); assay: cAMP assay in CHO-A12 cell line over-expressing mouse mFPR2; format: cell-based; settings: CHO-A12 cells over-expressing mFPR2; read-out: potency as activator of mFPR2/ALX
T2 construct: expressed in transfected cells; host or cells: CHO-A12
T2 sequence (O88536 1-351): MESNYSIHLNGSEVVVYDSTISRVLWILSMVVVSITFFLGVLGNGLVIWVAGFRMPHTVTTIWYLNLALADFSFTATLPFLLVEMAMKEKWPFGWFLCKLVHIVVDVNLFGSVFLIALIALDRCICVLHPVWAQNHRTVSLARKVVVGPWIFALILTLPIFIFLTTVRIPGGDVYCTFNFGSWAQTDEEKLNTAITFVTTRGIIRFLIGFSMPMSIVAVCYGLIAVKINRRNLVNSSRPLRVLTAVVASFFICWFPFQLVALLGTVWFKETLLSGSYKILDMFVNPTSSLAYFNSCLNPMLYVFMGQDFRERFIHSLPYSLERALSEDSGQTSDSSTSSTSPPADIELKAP

mFPR1 receptor = target: T3, mFPR1 receptor (Mus musculus, UniProt P33766); assay: Functional assay with mFPR1 receptor; format: cell-based; settings: read-out: function affinity with mFPR1 receptor
T3 sequence (P33766 1-364): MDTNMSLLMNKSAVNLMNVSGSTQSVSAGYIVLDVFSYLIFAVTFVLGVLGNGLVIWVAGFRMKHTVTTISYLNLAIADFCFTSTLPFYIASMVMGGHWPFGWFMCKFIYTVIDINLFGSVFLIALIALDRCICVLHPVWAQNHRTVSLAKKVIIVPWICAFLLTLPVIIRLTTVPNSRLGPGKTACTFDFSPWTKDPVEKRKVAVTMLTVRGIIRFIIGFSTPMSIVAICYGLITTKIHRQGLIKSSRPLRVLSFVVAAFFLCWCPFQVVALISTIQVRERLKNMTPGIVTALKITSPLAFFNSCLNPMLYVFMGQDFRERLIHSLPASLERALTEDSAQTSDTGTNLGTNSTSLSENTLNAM

mice [2] = assay: Permanent coronary artery occlusion myocardial infarction model; format: in vivo
Description: Animal models. Permanent coronary artery occlusion was carried out in mice using a ligature placed around the left anterior descending artery to induce myocardial infarction. […] Mice subjected to thoracotomy but not infarcted were included as surgical “sham” controls. Mice were evaluated 28 days following myocardial infarction to assess structure/function relationships. Hearts were removed from mice to evaluate the passive mechanics of the myocardium. To do this, ex vivo pressure-volume relationships of the left ventricle were measured via inflation and deflation cycles of a balloon placed within the left ventricle of the excised heart. Two-dimensional strains of the myocardial scar were also measured to determine the compliance of infarcted tissue. Hearts were also processed histologically to measure left ventricular dimensions, infarct areas and infarct collagen composition.

[3] = tested on: mouse bio-gel elicited peritoneal macrophages; assay: Enhancement of phagocytosis in bio-gel elicited peritoneal macrophages; format: cell-based
Description: Enhancement of phagocytosis. Macrophages were elicited to the peritoneum of five C57BL6 mice by peritoneal injection of 1 ml of 1% Biogel in PBS (−/−) 4 days prior to harvest. Peritoneal exudates are harvested, combined and then filtered to remove Biogel beads. First, through a 70 um cell strainer followed by successively filtering through two 40 um cell strainers. The exudate is diluted with 1× PBS (−/−) to 50 ml and centrifuged at 300× g for 10 minutes at 4° C. The cell pellet is gently resuspended in 20-30 ml 1× PBS(+/+) and cells are counted using the Nexelcom Cellometer counter. Cell concentration is adjusted to 1,250,000 cells/ml in 1× PBS (+/+). 100 ul (125 k) cells are placed into each well of a 96-well Costar 3904 plate. The plates are centrifuged at 150× g for 30 seconds to promote adherence. […] Fluorescence signal from non-ingested Zymosan particles is quenched with 150 ul ice-cold 1:15 diluted Trypan Blue solution for 2 minutes and then aspirated to remove. Lastly, the plate is read on a SpectraMAX Gemini EM fluorescence plate reader in 150 ul of 1:50 diluted Trypan Blue. Plate Reader Settings=Bottom Read: Excitation 493 nm: Emission 525 nm: Cutoff 515 nm: Automix Off: Calibrate On: PMT=Auto: Column Priority: Reads/Well=20.

human HL60 cell line [4] = assay: Flipr calcium flux assay using dHL60 cell line; format: cell-based; settings: HL-60; neutrophil like human HL60 cell line; read-out: potency for increase of cytosolic Ca2+ levels
Description: Flipr assay using dHL60 non-adherent cell line. HL60 cells were diluted to 1.5×10^5 cells/ml and were grown in culture medium containing 1.3% DMSO at 37C for 5 days. On day 6 cells were counted to make sure that cells viability was approx. 95%. The 1.2×10^7 cells were spin down and washed cells once with assay buffer. The supernatant was removed and cells were re-suspended in 12 ml buffer with fluo-4 AM loading dye and label cells at 37C for 30 min. Loading buffer: HBSS (invitrogen, cat 14075), 20 mM HEPES, 0.1% FAF-BSA, 15 ul of 0.025% pluronic F127 (Invitrogen, P3000 MP), 2.5 mM probenecid, 1.9 uM Fluo-4 AM (Invitrogen, F14201). After incubation cells were washed once with reaction buffer to remove the dye and were re-suspended at 1×10^6 cells/ml. Following wash, cells were plated in 100 ul/well in Poly-D-Lysine pre-coated 96 well assay plates. Assay plates were centrifuged at 1000 rpm for 10 min and then placed in the FLIPR to perform calcium flux assay.

human HL60 cell line [5] = assay: HL-60 cell migration assay agonist mode; format: cell-based; settings: read-out: potency for stimulation of chemotaxis by itself
Description: (§1) HL-60 cell culture and differentiation. The HL-60 cell line (ATCC, CCL-240, lot 60398411) was maintained in IMDM (Life Tech, cat 12440-053) medium supplemented with 20% fetal bovine serum, 50 U/ml penicillin, and 50 μg/ml streptomycin at 37° with 5% CO2. Cells were differentiated into the granulocyte lineage with DMSO; 2.5×10^5 cells/ml were incubated with 1.25% DMSO for 5 days.
Neutrophil and HL-60 cell migration assay agonist mode. After 5 day differentiation, cells were resuspended in phenol free RPMI (Invitrogen, cat 11835) with 0.2% fatty acid free BSA at a concentration of 3×10^7 cells/ml. The dHL-60 cells (10^5 in 100 μl) were added to the upper chamber of each HTS transwell-96well plate (Corning#3387). Migration was induced by placing chemoattractant in the bottom chamber and the dHL60 cells in the top chamber of the transwell plate. Cells were allowed to migrate for 120 min across the 5 micron filters at 37° with 5% CO2. Following migration, neutrophils or dHL-60 cells remaining in the transwell lower chamber (migrated fraction) were quantitated using the cell-titer-glo luminescence cell viability assay (Promega, G7571).

human HL60 cell line [6] = assay: HL-60 cell migration assay antagonist mode (SAA-induced chemotaxis); format: cell-based; settings: read-out: affinity for antagonism of chemotaxis induced by SAA
Description: as §1
Neutrophil and HL-60 cell migration assay antagonist mode. After 5 day differentiation, the cells were resuspended in phenol free RPMI (Invitrogen, cat 11835) with 0.2% fatty acid free BSA at a concentration of 3×10^7 cells/ml. The dHL-60 cells (10^5 in 100 μl) were pre-incubated for 15 minutes with varying concentrations of the […] at 37° with 5% CO2. Then 0.8uM of the recombinant serum amyloid A1 peptide (rSAA1, PeproTech, Cat#300-53) was added to the bottom chamber of each HTS transwell-96well plate (Coming#3387). Migration was induced by placing […] and the dHL60 cells mixture in the top chamber of the transwell plate. Cells were allowed to migrate for 120 min across the 5micron filters at 37° with 5% CO2. Following migration, neutrophils or dHL-60 cells remaining in the transwell lower chamber (migrated fraction) were quantitated using the cell-titer-glo luminescence cell viability assay (Promega, G7571).

[7] = mice, oral 1 and 10 mg/kg QD, stated for both models

For CC(C)c1c(NC(=O)Nc2ccc(Cl)cc2)c(=O)n(-c2ccccc2)n1C [Compound 1, 1-(4-chlorophenyl)-3-(5-isopropyl-1-methyl-3-oxo-2-phenyl-2,3-dihydro-1H-pyrazol-4-yl)urea], the EC50 (mFPR3) was greater than 10000 nM, the “decrease of left ventricular hydroxyproline content vs vehicle” value (mice [1]; 1 mg/kg, pre-treatment 24 h before angiotensin II, 2 weeks) was 83% and the “decrease of left ventricular hydroxyproline content vs vehicle” value (mice [1]; 10 mg/kg, pre-treatment 24 h before angiotensin II, 2 weeks) was 75%. The “interstitial collagen by histology of the left ventricle” value (mice [1]; pre-treatment 24 h before angiotensin II, 2 weeks) was “Comparable reductions”, the “hydroxyproline content and interstitial collagen levels by histology” value (mice [1]; treatment given at the time of angiotensin II challenge) was “comparable reductions” and the “reduction of interstitial fibrosis in the left ventricle vs vehicle” value (mice [1]; treatment started after 3 days of angiotensin II, 2.5 weeks, histology, p<0.001) was roughly 74%. For the same molecule, the EC50 (mFPR2/ALX) was 20 nM, the EC50 (mFPR1 receptor) was roughly 50 nM and the “reduction of infarct area (as % of left ventricle area) vs vehicle” value (mice [2]; 1 mg/kg, histology, p<0.05) was 44%. The “reduction of left ventricular chamber area vs vehicle (histology)” value (mice [2]; 1 mg/kg, p<0.05) was 28%, the “reduction of infarct area (as % of left ventricle area) vs vehicle” value (mice [2]; 10 mg/kg, histology, p<0.05) was 49% and the “reduction of left ventricular chamber area vs vehicle (histology)” value (mice [2]; 10 mg/kg, p<0.05) was 30%. For the same molecule, the “ex vivo left ventricle pressure-volume curves” value (mice [2]; 28 days post MI, 1 and 10 mg/kg QD oral) was “left shifted in a dose-dependent manner”, the “pressure-volume slopes (myocardial stiffness)” value (mice [2]; 28 days post MI, ex vivo) was “greater than vehicle and similar to normal sham control mice” and the two-dimensional scar strains (mice [2]; 28 days post MI, ex vivo) was “reduced circumferential and longitudinal strains relative to vehicle treatment”. For the same molecule, the overall mortality (mice [2]; high dose) was “decrease in overall mortality”, the “increased anterior left ventricular wall thickness at site of infarction vs vehicle” value (mice [2]; histology, p<0.05) was 45-65% and the “tolerability throughout the in-life phase” value (mice [2]; [7]) was “well tolerated”. For the same molecule, the “untoward effects on the physiology of the mice” value (mice [2]; [7]) was “no untoward effects”, the “enhancement of phagocytosis of fluorescently labeled zymosan vs untreated control cells” value ([3]; compound in picomolar range, depending on experimental conditions) was 250 to 60% and the “enhancement of phagocytosis in knockout macrophages” value ([3]; macrophages from single mFPR2 and mFPR3 or double mFPR2/FPR3 knockout mice) was “no such enhancement”. For the same molecule, the EC50 (human HL60 cell line [4]) was 50 nM, the EC50 (human HL60 cell line [5]) was 78 nM and the IC50 (human HL60 cell line [6]) was 189 nM.

Reference: patent publication US20180325869A1, “TARGETING OF THE FORMYL-PEPTIDE RECEPTOR 2/LIPOXIN A4 RECEPTOR (FPR2/ALX) FOR TREATMENT OF HEART DISEASE” (BRISTOL-MYERS SQUIBB COMPANY, priority 2015, published 2018)
